This experiment addresses T1, HTR1A (Homo sapiens, UniProt P08908).
T1 construct: purchased Promega (in-house HiBiT-GPCR construct library, NanoBRET)
T1 sequence (P08908 1-422): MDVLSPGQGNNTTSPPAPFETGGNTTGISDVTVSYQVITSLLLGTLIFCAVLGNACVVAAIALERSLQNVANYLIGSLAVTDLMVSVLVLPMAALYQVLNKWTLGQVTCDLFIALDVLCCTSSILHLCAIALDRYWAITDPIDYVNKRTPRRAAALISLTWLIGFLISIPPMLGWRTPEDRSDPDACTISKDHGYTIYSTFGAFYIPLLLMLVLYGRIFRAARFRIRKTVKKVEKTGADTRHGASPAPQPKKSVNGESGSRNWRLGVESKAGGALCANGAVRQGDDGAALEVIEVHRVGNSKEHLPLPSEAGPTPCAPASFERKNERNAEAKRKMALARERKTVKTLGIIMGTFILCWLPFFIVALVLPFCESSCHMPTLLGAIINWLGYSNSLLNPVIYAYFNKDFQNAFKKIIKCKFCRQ
The experiment is described as follows: NanoBRET screen HiBiT-HTR1A in HEK293. The experiment is classed as binding. As for the experimental part:
Each tracer candidate was screened across the entire library of HiBiT-GPCR constructs using NanoBRET as the detection modality. As depicted in Figure 4A, the specificity of interactions was evaluated through decrease in BRET due to competitive displacement of a bound tracer by excess parental compound. Each tracer was analyzed for binding to each HiBiT-GPCR fusion in the absence and in the presence of competing parental compound. Briefly, HEK293 cells were transfected with HiBiT-GPCR constructs diluted into promoterless DNA to reduce expression and maximize translocation to the cell surface. Each tracer candidate was then screened at concentrations of 1 μM and 0.1 μM across cells expressing these fusions. Cells were treated for 1.5 h with tracer either alone or in the presence of 20 μM competing parental compound (i.e., control). BRET was measured upon addition of purified LgBiT and subsequent complementation with HiBiT genetically fused to a GPCR. The specificity of interactions was assessed through a decrease in BRET signal due to competitive displacement of the bound tracer. To further gauge the robustness of these interactions, the fold response over the control (i.e., BRETtracer/BRETcontrol) was calculated. We chose a 1.5-fold response, which translates to ≥7-fold signal over noise as the minimal threshold required to score an interaction as positive.
HiBiT-GPCR DNA constructs were diluted in 10 mM Tris pH 8 to a final concentration of 0.01 μg/μL, arrayed in 96-well plates and stored at −20 °C. For transfection, HEK293 cells were suspended in Opti-MEM (without phenol red) supplemented with 2% fetal bovine serum (Seradigm) and 100 units/mL penicillin–streptomycin (Gibco) at a final concentration of 220,000 cells/mL and dispensed into white 96-well plates at 90 μL/well. Subsequent transfections and screens were carried using an Agilent Bravo Automated Liquid Handling Platform. First, the 96-well HiBiT DNA arrays were diluted 25-fold in Opti-MEM (without serum or phenol red) to a final concentration of 0.0004 μg/μL and 20 μL of the diluted DNAs were transferred into new 96-well plates. Next, promoterless carrier DNA (1 μg/μL) was diluted 25-fold (0.04 μg/μL) and then dispensed into the diluted arrays at 20 μL/well. Following brief mixing, Viafect transfection reagent (Promega) diluted 16-fold into Opti-MEM was dispensed into the plates at 40 μL/well. After mixing by pipetting, plates were incubated for 10 min on the pipetting station deck. The DNA-transfection reagent complexes were then added to plates containing cells. To facilitate the screen, 10 μL of DNA-transfection reagent complexes were added in duplicates to the top 4 and bottom 4 rows, resulting in two identical 48-well arrays per plate. Plates with transfected cells were incubated for 18–20 h at 37 °C/5% CO2. A screen of each tracer across the entire library using two different concentrations requires duplicate plates of transfected cells. Depending on the number of tracers being screened, transfections can be scaled up using the same ratios. The next day, for each tracer, four 20× screening solutions in tracer dilution buffer (Promega) were prepared: two duplicates at final concentration of 20 μM and two duplicates at a final concentration of 2 μM. […] The four resulting solutions were diluted 4-fold in Opti-MEM without serum or phenol red to generate 5× solutions (5 µM and 0.5 µM tracer +/− 100 μM competing compound). To screen the library, a BioTek MultiFlo FX liquid dispenser was used to dispense 22.5 µL of tracer solution to the top 4 rows and 22.5 µL tracer + competing compound solution to the 4 bottom rows. Plates were briefly mixed on an orbital shaker and incubated for 1.5 h at room temperature. […] Plates were briefly mixed on an orbital shaker and incubated for 15 min to allow complementation.

As for `O=C(CCOCCOCCOCCOCCNC(=O)CCc1ccc2n1[B-](F)(F)[N+]1=C(c3ccc[nH]3)C=CC1=C2)NCCCN1CCN(C2=Nc3ccccc3Oc3ccc(Cl)cc32)CC1` [Loxapine-a-2-NB590], the “NanoBRET Fold Response” value (HTR1A, tracer 0.1μM) came out at 1.15 and the “NanoBRET Fold Response” value (HTR1A, tracer 1μM) is given as 1.19. The corresponding values for `CCCn1c(=O)c2[nH]c(-c3ccc(OCC(=O)NCCNC(=O)CCOCCNC(=O)c4ccc(CNC(=O)CCc5ccc6n5[B-](F)(F)[N+]5=C(c7ccc[nH]7)C=CC5=C6)cc4)cc3)nc2n(CCC)c1=O` [XAC-3-NB590] are 1.01 and 0.89. Consider `CN(C)CCC=C1c2ccccc2CCc2ccc(C(=O)NCCNC(=O)CCOCCOCCOCCOCCNC(=O)CCc3ccc4n3[B-](F)(F)[N+]3=C(c5ccc[nH]5)C=CC3=C4)cc21` [Amitriptyline-a-2-NB590], for which the “NanoBRET Fold Response” value worked out at 1.33 (tracer at 0.1μM) and 1.04 (tracer at 1μM).

On to `COc1ccccc1N1CCN(CCCCN2C(=O)c3ccc(CNC(=O)CCOCCOCCOCCOCCNC(=O)CCc4ccc5n4[B-](F)(F)[N+]4=C(c6ccc[nH]6)C=CC4=C5)cc3C2=O)CC1` [NAN-190-2-NB590], for which the “NanoBRET Fold Response” value (HTR1A, tracer 0.1μM) amounted to 2.15 and the “NanoBRET Fold Response” value (HTR1A, tracer 1μM) is 1.76. Consider `O=C(CCc1ccc2n1[B-](F)(F)[N+]1=C(c3ccc[nH]3)C=CC1=C2)NCc1ccc(C(=O)NCCOCCOCCNCC(O)COc2cccc3ccccc23)cc1` (centres unmarked) [Propranolol-3-NB590], for which the “NanoBRET Fold Response” value is, setting by setting: (HTR1A, 0.1μM) 1.38; (HTR1A, 1μM) 1.39. `COc1ccccc1N1CCN(CCCCN2C(=O)c3ccc(CNC(=O)CCOCCNC(=O)c4ccc(CNC(=O)CCc5ccc6n5[B-](F)(F)[N+]5=C(c7ccc[nH]7)C=CC5=C6)cc4)cc3C2=O)CC1` [NAN-190-3-NB590]: under “HTR1A, tracer 1μM”, the “NanoBRET Fold Response” value is listed as 1.70.

Take `O=C(CCc1ccc2n1[B-](F)(F)[N+]1=C(c3ccc[nH]3)C=CC1=C2)NCc1ccc(C(=O)NCCOCCC(=O)N[C@@H]2CC[C@@]3(O)[C@H]4Cc5ccc(O)c6c5[C@@]3(CCN4CC3CC3)[C@H]2O6)cc1` [Naltrexone-3-NB590]: the “NanoBRET Fold Response” value runs as follows: (HTR1A, tracer 0.1μM) 0.94; (HTR1A, tracer 1μM) 1.03. As to `CCOC(=O)c1cc(C#N)c(N2CCC(C(=O)NS(=O)(=O)Cc3ccccc3/C=C/C(=O)NCCNC(=O)CCc3ccc4n3[B-](F)(F)[N+]3=C(c5ccc[nH]5)C=CC3=C4)CC2)nc1C` [AZD1283-1-NB590], the “NanoBRET Fold Response” value turned out to be 0.97 (HTR1A, 0.1μM) and 1.04 (HTR1A, 1μM).

As to `COc1ccc2[nH]c(-c3ccc(CNC(=O)CCOCCOCCOCCOCCNC(=O)CCc4ccc5n4[B-](F)(F)[N+]4=C(c6ccc[nH]6)C=CC4=C5)cc3)c(CCNC(C)=O)c2n1` [AzomelatoninICO9-2-NB590], the “NanoBRET Fold Response” value (0.1μM tracer) worked out at 0.95 and the “NanoBRET Fold Response” value (1μM tracer) is given as 1.15. For the compound `CC(C)N(CC[C@H](c1ccccc1)c1cc(CCNC(=O)CCOCCOCCOCCOCCNC(=O)CCc2ccc3n2[B-](F)(F)[N+]2=C(c4ccc[nH]4)C=CC2=C3)ccc1O)C(C)C` [Tolterodine-2-NB590], the “NanoBRET Fold Response” value reads like this: (HTR1A, tracer 0.1μM) 1.14; (HTR1A, tracer 1μM) 1.06. Regarding `CN1CCN(C2=Nc3cc(Cl)ccc3N(CC(=O)NCCOCCOCCOCCOCCNC(=O)CCc3ccc4n3[B-](F)(F)[N+]3=C(c5ccc[nH]5)C=CC3=C4)c3ccccc32)CC1` [Clozapine-c-2-NB590], the “NanoBRET Fold Response” value (HTR1A, 1μM tracer) came to 1.12. For the compound `N#CN=C(NCCCOc1cccc(CN2CCCCC2)c1)NCCNC(=O)CCOCCOCCOCCOCCNC(=O)CCc1ccc2n1[B-](F)(F)[N+]1=C(c3ccc[nH]3)C=CC1=C2` [Aminopotentidine-2-NB590], the “NanoBRET Fold Response” value runs as follows: (HTR1A, tracer 0.1μM) 1.04; (HTR1A, tracer 1μM) 0.98. In the case of `COc1ccc2c(n1)c(CCNC(C)=O)cn2CCNC(=O)CCc1ccc2n1[B-](F)(F)[N+]1=C(c3ccc[nH]3)C=CC1=C2` [Azamelatonin-1-NB590], the “NanoBRET Fold Response” value is, setting by setting: (0.1μM tracer) 1.02; (1μM tracer) 1.02. With `CN(CCC=C1c2ccccc2CCc2ccccc21)C(=O)CCOCCOCCOCCOCCNC(=O)CCc1ccc2n1[B-](F)(F)[N+]1=C(c3ccc[nH]3)C=CC1=C2` [Amitriptyline-e-2-NB590], the “NanoBRET Fold Response” value (tracer at 1μM) is listed as 0.99. On to `N#CN/C(=N\CCNC(=O)c1ccc(N)cc1)NCCCOc1cccc(CN2CCCCC2)c1` [Aminopotentidine (unmodified)], for which the “NanoBRET Fold Response” value (HTR1A, other tracers/Aminopotentidine (unmodified), 0.1μM) is recorded as 1.28 and the “NanoBRET Fold Response” value (HTR1A, other tracers/Aminopotentidine (unmodified), 1μM) was determined as 1.69. Take `CC(C)N(CC[C@H](c1ccccc1)c1cc(CCNC(=O)c2ccc(CNC(=O)CCc3ccc4n3[B-](F)(F)[N+]3=C(c5ccc[nH]5)C=CC3=C4)cc2)ccc1O)C(C)C` [Tolterodine-BZ-NB590]: the “NanoBRET Fold Response” value runs as follows: (HTR1A, tracer 0.1μM) 1.03; (HTR1A, tracer 1μM) 1.12. Turning to `O=C(CCc1ccc2n1[B-](F)(F)[N+]1=C(c3ccc[nH]3)C=CC1=C2)NCCOCCOCCNC(=O)OCCOCCN1CCN(C2=Nc3ccccc3Sc3ccccc32)CC1` [Quetiapine-a-2-NB590], the “NanoBRET Fold Response” value by setting is: (HTR1A, tracer 0.1μM) 1.09; (HTR1A, tracer 1μM) 1.04. For `Cc1cc2c(s1)Nc1ccccc1N=C2N1CCN(CCCNC(=O)CCOCCOCCOCCOCCNC(=O)CCc2ccc3n2[B-](F)(F)[N+]2=C(c4ccc[nH]4)C=CC2=C3)CC1` [Olanzapine-a-2-NB590], in that order: 0.99 and 1.06. For the compound `CN(C)CCC=C1c2ccccc2CCc2ccc(C(=O)NCCNC(=O)CCOCCOCCOCCOCCNC(=O)CCc3ccc4n3[B-](F)(F)[N+]3=C(c5ccc[nH]5)C=CC3=C4)cc21` [Amitriptyline-b-2-NB590], the “NanoBRET Fold Response” value runs as follows: (tracer at 0.1μM, listed as amitriptyline-b-2-NB590) 1.19; (tracer at 1μM, listed as amitriptyline-b-2-NB590) 1.02.

As to `O=C(CCOCCOCCOCCOCCNC(=O)CCc1ccc2n1[B-](F)(F)[N+]1=C(c3ccc[nH]3)C=CC1=C2)NCCCN1CCN(C2=Nc3cc(Cl)ccc3Nc3ccccc32)CC1` [Clozapine-a-2-NB590], the “NanoBRET Fold Response” value is given as 1.16 (HTR1A, 0.1μM tracer) and 0.98 (HTR1A, 1μM tracer). As for `CN1CCN(C2=Nc3cc(Cl)ccc3Nc3ccc(CNC(=O)CCOCCOCCOCCOCCNC(=O)CCc4ccc5n4[B-](F)(F)[N+]4=C(c6ccc[nH]6)C=CC4=C5)cc32)CC1` [Clozapine-b-2-NB590], the “NanoBRET Fold Response” value is on record as 0.98 (HTR1A, 0.1μM tracer) and 1.21 (HTR1A, 1μM tracer). For the compound `Cc1nc2n(c(=O)c1CCN1CCC(c3noc4cc(F)ccc34)CC1)CCCC2OC(=O)NCCOCCOCCOCCOCCNC(=O)CCc1ccc2n1[B-](F)(F)[N+]1=C(c3ccc[nH]3)C=CC1=C2` (centres unmarked) [Risperidone-2-NB590], the “NanoBRET Fold Response” value is, setting by setting: (HTR1A, tracer 0.1μM) 1.24; (HTR1A, tracer 1μM) 1.15.

The record behind these values is paper PMC8151276, “An Integrated Approach toward NanoBRET Tracers for Analysis of GPCR Ligand Engagement” (Molecules, 2021).
